Assay [1] relates to tumors from the HER2 transgenic cell line HER-3081-3-10. As to the kind of experiment: Growth of tumors from cell line HER-3081-3-10 in mice. In kind it is in vivo, mouse. The note with it: 4D5, 7C2 30 mg/kg intraperitoneally for 4 weeks; taxol 15.6 mg/kg subcutaneously daily for 5 days; tumors 100 mm^3, FIG. 16. The method, then:
The efficacy of taxol and anti-HER2 monclonal antibodies 7C2 and 4D5 in preventing tumor growth was assessed (FIG. 16). At day 0, 6-8 week old FVP mice were innoculated under the skin with 2 million tumor cells from cell line HER-3081-3-10. When the tumors reached 100 mm^3 the mice were separated into 5 groups with 9 animals per group. Antibodies 4D5 and 7C2 were given intraperitoneally at 30 mg/kg for 4 weeks. Taxol was given subcutaneously daily for 5 days at 15.6 mg/kg. Tumors were measured during the study at regular intervals.

For assay [2], the system named is MMTV-HER2-transgenic tumors transplanted into the mammary fat pad of FVB mice. As to the kind of experiment: Transplanted MMTV-HER2-transgenic tumor model in FVB mice. In kind it is in vivo, mouse. An excerpt: Two mm3 pieces of MMTV-HER2-transgenic tumors were transplanted into the mammary fat pad of FVB mice.
All animals received five doses.
The tumor was surgically resected under aseptic conditions and minced into small pieces, 2 mm^3, which were then transplanted into the mammary fat pad of wild-type FVB female mice.

Assay [3] has as its system HER-5, HER-3081-3-4, HER-3081-3-10 and HER-3081-3-19 cells. As to the kind of experiment: Mitogen responsiveness of HER2 transgenic cell lines, crystal violet. The note with it: heregulin 0.005-5 nM or EGF 0.05-50 ng/ml, 4 days, FIG. 11. Format: cell-based, mouse. How it is done: Briefly, cells were detached from a T75 flask with Dissociation Solution (Sigma) and plated in fibronectin coated 96 well plates. Approximately 10,000 cells were plated per well in 0.1 ml of fully supplemented media. […] After 4 days plates were washed twice with PBS (pH 7.5), stained with crystal violet (0.5% in methanol), dried, solubilized and the optical density measured at a wavelength of 540 nm on a plate reader, essentially as described in Sugarman et al. Science 230:943-945 (1985).

“Also recorded” adds a separate entry of the source.

`CC(=O)O[C@H]1C(=O)[C@@]2(C)[C@H]([C@H](OC(=O)c3ccccc3)[C@]3(O)C[C@H](OC(=O)[C@H](O)[C@@H](NC(=O)c4ccccc4)c4ccccc4)C(C)=C1C3(C)C)[C@]1(OC(C)=O)CO[C@@H]1C[C@@H]2O` [taxol, paclitaxel]: in assay [1], the “reduction of tumor growth” value is reported as “more effective than either of the antibodies alone”. “RITUXAN®: an unrelated antibody, used as negative control”: in assay [2] (FIG. 7, unconjugated control antibody), the “efficacy on tumor size” value is reported as “no efficacy”. For the same compound, the “effect on tumor growth” value in assay [2] (FIG. 8, control antibody and control conjugate) is reported as “Neither unconjugated RITUXAN® (control MAb E25) nor RITUXAN®-DM1 had any obvious effect on tumor growth”.

Regarding heregulin, the “proliferation in response to mitogen” value in assay [3] is “only the HER-5 cell line proliferated; also recorded: mitogens only for cell line HER-5”.

(Values after patent publication US6632979B2, “Rodent HER2 tumor model” (Genentech, Inc., priority 2000, dated 2003).)
